The target in this assay is T1, Recombinant human LTC4 synthase (Homo sapiens, UniProt Q16873).
T1 construct: made in house; host or cells: Pichia pastoris
T1 sequence (Q16873 1-150): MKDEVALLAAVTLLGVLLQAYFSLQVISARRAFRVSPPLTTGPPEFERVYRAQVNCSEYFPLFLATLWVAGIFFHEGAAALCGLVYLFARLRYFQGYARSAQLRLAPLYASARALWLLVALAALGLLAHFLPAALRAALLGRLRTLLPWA
As to the kind of experiment: LTC4 synthase in vitro assay (HTRF detection of LTC4). The conditions noted are these: HTRF method; for inhibition at 3 µM: compound concentration 3 μM. The format is biochemical. Here is the method:
Alternatively HTRF detection of LTC4 can be used:
In the assay, LTC4 synthase catalyses the reaction where the substrate LTA4 is converted to LTC4. Recombinant human LTC4 synthase is expressed in Piccia pastoralis and the purified enzyme is dissolved in 25 mM Tris-buffer pH 7.8 supplemented with 0.1 mM glutathione (GSH) and stored at −80° C. The assay is performed in phosphate buffered saline (PBS) pH 7.4 and 5 mM GSH in 384-well plates.
The following is added chronologically to each well: • 1. 48 μl LTC4 synthase in PBS with 5 mM GSH. The total protein concentration in this solution is 0.5 μg/ml. • 2. […] Incubation of the plate at room temperature for 10 minutes. • 4. 1 μl LTA4 (final conc. 2.5 μM). • 5. Incubation of the plate at room temperature for 5 minutes. • 6. 10 μl of the incubation mixture is analysed using homogeneous time resolved fluorescent (HTRF) detection.
Background: TR-FRET usually uses a lanthanide donor and a delayed reading to cut background.

[1] abbreviates: total concentration of title compound in the assay 10 μM.

The structures appear in SMILES notation.

In the case of `O=C(O)Cc1cc(Oc2ccc(NC(=O)c3ccc(C(F)(F)F)cc3F)c(C(=O)O)c2)ccc1NC(=O)c1cc(F)c(Cl)cc1F` [6:5, 5-[3-carboxy-methyl-4-(4-chloro-2,5-difluoro-benzoylamino)-phenoxy]-2-(2-fluoro-4-trifluoro-methylbenzoylamino)-benzoic acid], under setting [1], the “% inh.” value is 96%. The term inhibition denotes the share of the control response that was lost under treatment. With `CC(C)Oc1ccc(C(=O)Nc2ccc(Oc3ccc(NC(=O)c4ccc(Cl)cc4Cl)c(CC(=O)O)c3)cc2C(=O)O)cc1` [6:6, 5-[3-carboxymethyl-4-(2,4-dichloro-benzoyl-amino)phenoxy]-2-(4-isopropoxybenzoyl-amino)benzoic acid], the inhibition at 10 µM under setting [1] is 98%.

With `CCOc1c(Cl)cc(C(F)(F)F)cc1C(=O)Nc1ccc(Oc2ccc(NC(=O)c3ccc(OC(C)C)cc3)c(C(=O)O)c2)cc1CC(=O)O` [6:7, 5-[3-carboxymethyl-4-(3-chloro-2-ethoxy-5-tri-fluoromethylbenzoyl-amino)phenoxy]-2-(4-isopropoxybenzoyl-amino)benzoic acid], the inhibition at 10 µM under setting [1] was 100%. Consider `O=C(Nc1ccc(Oc2ccc([N+](=O)[O-])cc2)cc1C(=O)O)c1ccc(Cl)cc1Cl` [8:2, 2-(2,4-dichlorobenzamido)-5-(4-nitrophenoxy)benzoic acid], for which the inhibition at 10 µM under setting [1] was determined as 93%.

As to `O=C(Nc1ccc(Oc2ccc(NC(=O)c3cc(Cl)ccc3O)cc2)cc1C(=O)O)c1ccc(C(F)(F)F)cc1` [8:3, 5-[4-(5-chloro-2-hydroxybenzoylamino)phenoxy]-2-(4-trifluoro-methylbenzoylamino)-benzoic acid], the “% inh.” value under setting [1] is listed as 96%.

With `CCCCc1ccc(C(=O)Nc2ccc(Oc3ccc(NC(=O)c4ccc(C(F)(F)F)cc4)c(C(=O)O)c3)cc2)cc1` [8:4, 5-[4-(4-(butyl)benzoylamino)-phenoxy]-2-(4-trifluoromethyl-benzoylamino)benzoic acid], the inhibition at 10 µM under setting [1] amounted to 89%. Regarding `Cc1nc(C(F)(F)F)ccc1C(=O)Nc1ccc(Oc2ccc(NC(=O)c3ccc(C(F)(F)F)cc3)c(C(=O)O)c2)cc1` [8:5, 5-[4-((2-methyl-6-(trifluoro-methyl)-pyridine-3-carbonyl)-amino)-phenoxy]-2-(4-(trifluoro-methyl)-benzoylamino)-benzoic acid], the inhibition at 3 µM came out at 83%. As to `CN(C)c1ccc(C(=O)Nc2ccc(Oc3ccc(NC(=O)c4ccc(C(F)(F)F)cc4)c(C(=O)O)c3)cc2)cc1.Cl` [8:6, 5-[4-(4-dimethylaminobenzoyl-amino)phenoxy]-2-(4-trifluoro-methylbenzoylamino)benzoic acid hydrochloride], under setting [1], the “% inh.” value amounted to 97%.

`O=C(Cc1ccc(Cl)cc1)Nc1ccc(Oc2ccc(NC(=O)c3ccc(C(F)(F)F)cc3)c(C(=O)O)c2)cc1` [8:7, 5-[(4-(2-(4-chlorophenyl)acetyl-amino)phenoxy)]-2-(4-trifluoro-methylbenzoylamino)benzoic acid]: the “% inh.” value (compound concentration 1 μM) is 64 (1 μM) %. Turning to `CCCCc1ccc(C(=O)Nc2ccc(Oc3ccc(NC(=O)c4ccccc4)cc3)cc2C(=O)O)cc1` [8:8, 5-(4-benzoylaminophenoxy)-2-(4-butylbenzoylamino)benzoic acid], the inhibition at 3 µM was determined as 89%. Consider `CCCCc1ccc(C(=O)Nc2ccc(Oc3ccc(NC(=O)c4cc(OC)cc(OC)c4)cc3)cc2C(=O)O)cc1` [8:9, 2-(4-butylbenzoylamino)-5-[4-(3,5-dimethoxybenzoylamino)-phenoxy]benzoic acid], for which the inhibition at 10 µM under setting [1] came to 88%. Regarding `O=C(Nc1ccc(Oc2ccc(NC(=O)c3ccc(OC(F)(F)F)cc3)c(C(=O)O)c2)cc1)c1ccccc1` [8:10, 5-(4-benzoylaminophenoxy)-2-(4-trifluoromethoxy-benzoylamino)benzoic acid], under setting [1], the inhibition at 10 µM amounted to 67%. Turning to `CCOc1ccc(C(=O)Nc2ccc(Oc3ccc(NC(=O)c4ccccc4)cc3)cc2C(=O)O)cc1` [8:11, 5-(4-benzoylaminophenoxy)-2-(4-ethoxybenzoylamino)-benzoic acid], the inhibition at 3 µM was 70%.

Regarding `CCCCc1ccc(C(=O)Nc2ccc(Oc3ccc(NC(=O)c4ccccc4)c(C(=O)O)c3)cc2)cc1` [8:12, 2-benzoylamino-5-[4-(4-butyl-benzoylamino)phenoxy]-benzoic acid], the inhibition at 10 µM under setting [1] came out at 99%.

In the case of `CC(C)Oc1ccc(C(=O)Nc2ccc(Oc3ccc(NC(=O)c4ccccc4)c(C(=O)O)c3)cc2)cc1` [8:13, 2-benzoylamino-5-[4-(4-iso-propoxybenzoylamino)-phenoxy]benzoic acid], the inhibition at 10 µM under setting [1] was found to be 98%. The same measure, in the same setting: the result for `Cc1nc(C(F)(F)F)ccc1C(=O)Nc1ccc(Oc2ccc(NC(=O)c3ccc(OC(C)C)cc3)cc2)cc1C(=O)O` [8:14, 5-[4-(4-isopropoxybenzoyl-amino)phenoxy]-2-[(2-methyl-6-trifluoromethylpyridine-3-carbonyl)amino]benzoic acid] reads 100%; that for `CC(C)(C)c1ccc(C(=O)Nc2ccc(Oc3ccc(NC(=O)c4cccnc4Cl)c(C(=O)O)c3)cc2)cc1` [8:16, 5-[4-(4-tert-Butylbenzoyl-amino)phenoxy]-2-[(2-chloro-pyridine-3-carbonyl)-amino]benzoic acid], 99%; that for `CC(C)(C)c1ccc(C(=O)Nc2ccc(Oc3ccc(NC(=O)c4cc(Cl)cnc4Cl)c(C(=O)O)c3)cc2)cc1` [8:17, 5-[4-(4-tert-Butylbenzoyl-amino)phenoxy]-2-[(2,5-di-chloropyridine-3-carbonyl)-amino]benzoic acid], 98%. Take `CC(C)(C)c1ccc(C(=O)Nc2ccc(Oc3ccc(NC(=O)c4ccccn4)c(C(=O)O)c3)cc2)cc1` [8:18, 5-[4-(4-tert-Butylbenzoyl-amino)phenoxy]-2-[(pyridine-2-carbonyl)-amino]benzoic acid]: the inhibition at 10 µM under setting [1] was 99%.

With `COc1cc(Cl)ccc1C(=O)Nc1ccc(Oc2ccc(NC(=O)c3ccc(C(C)(C)C)cc3)cc2)cc1C(=O)O` [8:19, 5-[4-(4-tert-Butylbenzoyl-amino)phenoxy]-2-(4-chloro-2-methoxybenzoylamino)-benzoic acid], under setting [1], the inhibition at 10 µM is 99%. Still for that read-out and setting: the result for `CC(C)(C)c1ccc(C(=O)Nc2ccc(Oc3ccc(NC(=O)c4ccc(Cl)nc4Cl)c(C(=O)O)c3)cc2)cc1` [8:20, 5-[4-(4-tert-Butylbenzoyl-amino)phenoxy]-2-[(2,6-di-chloropyridine-3-carbonyl)-amino]benzoic acid] reads 96%.

As to `CCCCc1ccc(C(=O)Nc2ccc(Oc3ccc(N(C)C(=O)c4ccc(CCCC)cc4)cc3)cc2C(=O)O)cc1` [9:1, 5-(4-((N-methyl)-4-butylbenz-amido)phenoxy)-2-(4-butylbenz-amido)benzoic acid], the “% inh.” value under setting [1] was 100%. Same read-out and setting: the result for `COc1ccc(C(=O)Nc2ccc(Oc3ccc(N(C)C(=O)c4ccc(C(C)(C)C)cc4)cc3)cc2C(=O)O)cc1` [9:2, 5-(4-((N-methyl)-4-tert-butylbenz-amido)phenoxy)-2-(4-methoxybenz-amido)benzoic acid] reads 96%; that for `CN(C(=O)c1ccc(C(C)(C)C)cc1)c1ccc(Oc2ccc(NC(=O)c3ccc(Cl)cc3Cl)c(C(=O)O)c2)cc1` [9:3, 5-(4-((N-methyl)-4-tert-butylbenz-amido)phenoxy)-2-(2,4-dichlorobenz-amido)benzoic acid], 99%. For `CC(C)Oc1ccc(C(=O)Nc2ccc(Oc3ccc(N(C)C(=O)c4ccc(C(F)(F)F)cc4)cc3)cc2C(=O)O)cc1` [9:4, 5-(4-((N-methyl)-4-trifluoromethyl-benzamido)phenoxy)-2-(4-isopropoxy-benzamido)benzoic acid], the inhibition at 10 µM under setting [1] was found to be 99%.

The values above are taken from US20110071197A1, “BIS-ARYL COMPOUNDS FOR USE AS MEDICAMENTS” (priority 2008, published 2011).
